According to US11970496B1, “Pyrrolo[3,2-c]quinoline compounds as CK2 inhibitors” (KING FAISAL UNIVERSITY, priority 2023, dated 2024):

Legend:
[1] = tested on: MCF7 (breast); experiment: In vitro cytotoxic activity assay (MTT), MCF7; assay type: cell-based; conditions: Homo sapiens; MCF7 cells, exposed for 96 hours; read-out: IC50, 50% inhibition of cell proliferation, MCF7 (breast)
Protocol: (§1) Compounds 1-12 were screened for their in vitro cytotoxic activity utilizing a 3-(4,5-dimethyl-thiazol-2-yl)-2,5-diphenyltetrazolium bromide (MTT) assay against selected cancer human cell lines consisting of PC3 (prostate), HCT116 (colon), A375 (melanoma), H1299 (lung), MIAPaCa-2 (pancreas), HL60 (leukemia), MCF7 (breast), MDA-MB-231 (breast) (T. Mosmann, J. Immunol. Meth., 1983, 65, 55-63). The cells were cultured at 37° C. in RMPI1640 medium supplemented with 10% fetal bovine serum, 50 IU/mL penicillin, and 50 μg/mL streptomycin in a 5% CO2 incubator. All cells were sub-cultured 3 times/week by trypsinisation. Viable cells were seeded and allowed to adhere for 12 h before a test drug was added in 96-well plates at an initial density of 1.0×10^5 cells/mL. Tumour cell lines were separately exposed to various concentrations of the tested compounds followed by incubation at a temperature of 37° C. during 96 h inside a medium of fresh RMPI 1640. Cells were subsequently incubated at 37° C. using MTT at 0.5 mg/mL during 4 h. After removal of supernatant, formazan crystals were dissolved in isopropanol and the optical density was measured at 570 nm. CX-4945 was used as a positive control.

[2] = tested on: HCT116 (colon); experiment: In vitro cytotoxic activity assay (MTT), HCT116; assay type: cell-based; conditions: Homo sapiens, HCT-116; HCT116 cells, exposed for 96 hours; read-out: IC50, 50% inhibition of cell proliferation, HCT116 (colon)
Protocol: as §1

[3] = tested on: A375 (melanoma); experiment: In vitro cytotoxic activity assay (MTT), A375; assay type: cell-based; conditions: Homo sapiens, A-375; A375 cells, exposed for 96 hours; read-out: IC50, 50% inhibition of cell proliferation, A375 (melanoma)
Protocol: as §1

[4] = tested on: MDA-MB-231 (breast); experiment: In vitro cytotoxic activity assay (MTT), MDA-MB-231; assay type: cell-based; conditions: Homo sapiens; MDA-MB-231 cells, exposed for 96 hours; read-out: IC50, 50% inhibition of cell proliferation, MDA-MB-231 (breast)
Protocol: as §1

[5] = tested on: PC3 (prostate); experiment: In vitro cytotoxic activity assay (MTT), PC3; assay type: cell-based; conditions: Homo sapiens, PC-3; PC3 cells, exposed for 96 hours; read-out: IC50, 50% inhibition of cell proliferation, PC3 (prostate)
Protocol: as §1

[6] = target: T1, recombinant human CK2 (RRββ-holoenzyme) (Homo sapiens, UniProt P68400); experiment: CK2 Kinase Assay (33P-ATP, substrate peptide RRRDDDSDDD); assay type: biochemical; conditions: final ATP concentration 15 μM, 10 min at 30° C.; read-out: protein kinase CK2 IC50
T1 construct: purchased Millipore
Protocol: CK2 Kinase Assay was conducted using the protocol as described in Pierre F. et al; J. Med. Chem. 2011, 54, 635-654. The tested compounds in aqueous solution were added at a volume of 10 μL to a reaction mixture comprising 10 μL of assay dilution buffer (ADB; 20 mM MOPS, pH 7.2, 25 mM (3-glycerol phosphate, 5 mM EGTA, 1 mM sodium orthovanadate, and 1 mM dithiothreitol), 10 μL of substrate peptide (RRRDDDSDDD, dissolved in ADB at a concentration of 1 mM), 10 μL of recombinant human CK2 (RRββ-holoenzyme, 25 ng dissolved in ADB; Millipore). Reactions were initiated by the addition of 10 μL of ATP solution (90% 75 mMMgCl2, 75 μM ATP (final ATP concentration: 15 μM) dissolved in ADB; 10% [γ-33P] ATP (stock 1 mCi/100 μL; 3000 Ci/mmol (Perkin-Elmer) and maintained for 10 min at 30° C. The reactions were quenched with 100 μL of 0.75% phosphoric acid and then transferred to and filtered through a phosphor cellulose filter plate (Millipore). After washing each well five times with 0.75% phosphoric acid, the plate was dried under vacuum for 5 min and, following the addition of 15 μL of scintillation fluid to each well, the residual radioactivity was measured using a Wallac […]. The IC50 values were derived from eight concentrations of test inhibitors.

[7] = tested on: HL60 (leukemia); experiment: In vitro cytotoxic activity assay (MTT), HL60; assay type: cell-based; conditions: Homo sapiens, HL-60; HL60 cells, exposed for 96 hours; read-out: IC50, 50% inhibition of cell proliferation, HL60 (leukemia)
Protocol: as §1

[8] = tested on: MIAPaCa-2 (pancreas); experiment: In vitro cytotoxic activity assay (MTT), MIAPaCa-2; assay type: cell-based; conditions: Homo sapiens, MIA PaCa-2; MIAPaCa-2 cells, exposed for 96 hours; read-out: IC50, 50% inhibition of cell proliferation, MIAPaCa-2 (pancreas)
Protocol: as §1

[9] = tested on: H1299 (lung); experiment: In vitro cytotoxic activity assay (MTT), H1299; assay type: cell-based; conditions: Homo sapiens, NCI-H1299; H1299 cells, exposed for 96 hours; read-out: IC50, 50% inhibition of cell proliferation, H1299 (lung)
Protocol: as §1

T1 sequence (P68400 whole entry): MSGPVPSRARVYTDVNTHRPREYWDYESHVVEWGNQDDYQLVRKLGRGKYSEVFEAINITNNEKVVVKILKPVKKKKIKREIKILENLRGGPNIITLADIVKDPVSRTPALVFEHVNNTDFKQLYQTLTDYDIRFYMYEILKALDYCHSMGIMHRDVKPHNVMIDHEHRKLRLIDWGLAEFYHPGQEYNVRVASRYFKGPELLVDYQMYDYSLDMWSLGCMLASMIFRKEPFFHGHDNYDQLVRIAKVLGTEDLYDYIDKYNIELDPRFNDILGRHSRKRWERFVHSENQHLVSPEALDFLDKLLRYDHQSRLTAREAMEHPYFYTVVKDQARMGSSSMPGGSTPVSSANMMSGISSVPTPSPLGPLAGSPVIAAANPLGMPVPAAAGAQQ
T1 sequence (P67870 whole entry partner): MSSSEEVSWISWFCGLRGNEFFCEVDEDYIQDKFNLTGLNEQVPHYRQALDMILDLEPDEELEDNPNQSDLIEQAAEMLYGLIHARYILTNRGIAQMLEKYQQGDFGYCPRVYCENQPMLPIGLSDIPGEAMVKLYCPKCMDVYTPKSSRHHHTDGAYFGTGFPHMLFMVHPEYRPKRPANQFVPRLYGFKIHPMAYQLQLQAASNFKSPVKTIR

IC50 [6]: 0.037 µM
SMILES: O=C(O)c1ccc2c(c1)nc(Nc1cccc(Cl)c1)c1cc(C(=O)O)[nH]c12 [Compound 1, 4-((3-chlorophenyl)amino)-1H-pyrrolo[3,2-c]quinoline-2,7-dicarboxylic acid]
IC50 [1]: 4.4 µM
IC50 [2]: 1.9 µM
IC50 [3]: 2.2 µM
IC50 [4]: 3.5 µM
IC50 [5]: 1.8 µM
IC50 [7]: 2.9 µM
IC50 [8]: 1.3 µM
IC50 [9]: 1.6 µM
